“And” between values parts separate entries of the source, which are not always exact repeats. Equal values may be shown once. “Also recorded” adds a separate entry of the source. Read-outs that look alike come from different tables or passages of the source.
Legend:
CB2R = conditions: cited from earlier work
hCB2R = biological target: T1, hCB2R (Homo sapiens, UniProt P34972); assay: Competitive radioligand binding assay, displacement of [3H]WIN55212-2 from homogenates of hCB2R-CHO cells; conditions: for Ki: read-out: CB2R Ki; for CB2R binding affinity, in words: hCB2R, discussion of Table 1
T1 construct: host or cells: CHO cells, stably transfected
Description: (§1) The binding affinity of the herein described compounds toward the human CB2R was determined by a competitive radioligand binding assay according to the established in-house protocol using cell homogenates obtained from CHO cells stably transfected with hCB2R (hCB2R-CHO).[53],[73] For compounds binding with high affinity to hCB2R, the affinity toward CB1R was determined as well by radioligand displacement studies performed either with homogenates obtained from the mouse brain or hCB1R-CHO cells.
(§2) The binding affinities toward hCB1R and hCB2R were determined according to a previously published protocol.[22] In brief, membrane preparations obtained from CHO cell lines stably transfected with either human CB1R (hCB1R-CHO; obtained from Euroscreen, Gosselies, Belgium) or human CB2R (hCB2R-CHO; obtained from Paul L. Prather, Department of Pharmacology and Toxicology, College of Medicine, University of Arkansas for Medical Sciences, USA) were incubated with [^3H]SR141716A (1,554 GBq/mmol; PerkinElmer Life and Analytical Sciences, Rodgau, Germany; final concentration ∼2 nM) or [^3H]WIN55212-2 (6,438 GBq/mmol; PerkinElmer Life and Analytical Sciences, Rodgau, Germany; final concentration ∼3 nM) and the respective test compounds at different concentrations (final concentration 10^–5–10^–11 M) diluted from DMSO stock solutions (1% DMSO final concentration) in incubation buffer (50 mM TRIS-HCl, pH 7.4, supplemented with 0.1% bovine serum albumin, 5 mM MgCl2, and 1 mM EDTA) at rt for 90 min.
(§3) The nonspecific binding of the respective radioligand was determined by coincubation with CP55,940 (final concentration 10^–5 M). The normalized values of bound activity (% specific binding) were calculated and plotted vs the logarithm of the concentration of the respective test compound. The IC50 values of the resulting inhibition curves were estimated by nonlinear regression analysis (GraphPad Prism 2.01). To calculate the Ki, the equation of Cheng and Prusoff was used. For homologous competition experiments, Ki = KD.[38]

hCB1R = biological target: T2, hCB1R (Homo sapiens, UniProt P21554); assay: Radioligand displacement assay, [3H]SR141716A from homogenates of hCB1R-CHO cells; type: binding
T2 construct: host or cells: CHO cells, stably transfected
Description: as §1, §2, §3

hCB2R(D80N) = biological target: T3, hCB2R(D80N) (Homo sapiens, UniProt P34972, D80N); set-up: method as in earlier work; conditions: same animal model, previously evaluated; ref 83 ([18F]LU14), 31 ([18F]LU13); cited from earlier work
T3 construct: expressed in transfected cells; host or cells: neurons of the right striatum of male Wistar rats, transduced in vivo with the AAV2/7-CaMKII0.4-intron-hCB2R(D80N) vector

[1] = Figure 1, ref 28 (DM102), 29, 30 (RoSMA-18-d6), 31 (LU13), 33 (LUZ5-d8)
[2] = Figure 1, ref 28 (DM102), 29, 30 (RoSMA-18-d6), 31 (LU13), 33 (LUZ5-d8), read-out: KiCB2R
[3] = hCB2R-CHO homogenates, displacement of [3H]WIN55.2212-2
[4] = hCB1R-CHO homogenates, displacement of [3H]SR141716A, read-out: CB1R Ki
[5] = enantiomer obtained by chiral HPLC separation (Scheme 1), hCB2R-CHO, [3H]WIN55.2212-2

T2 sequence (P21554 whole entry): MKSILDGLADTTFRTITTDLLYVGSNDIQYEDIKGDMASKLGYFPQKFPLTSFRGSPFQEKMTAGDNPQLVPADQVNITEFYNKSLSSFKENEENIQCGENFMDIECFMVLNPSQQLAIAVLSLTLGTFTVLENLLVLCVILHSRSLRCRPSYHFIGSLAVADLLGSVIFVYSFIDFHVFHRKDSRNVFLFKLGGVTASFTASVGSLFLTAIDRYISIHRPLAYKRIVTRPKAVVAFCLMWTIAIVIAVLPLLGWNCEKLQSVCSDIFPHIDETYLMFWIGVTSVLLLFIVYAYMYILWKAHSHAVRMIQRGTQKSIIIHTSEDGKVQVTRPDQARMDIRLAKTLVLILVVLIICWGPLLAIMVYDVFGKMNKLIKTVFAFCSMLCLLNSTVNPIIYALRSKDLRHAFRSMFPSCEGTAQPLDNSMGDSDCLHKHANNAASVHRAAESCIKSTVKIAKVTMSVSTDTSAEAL
T1 sequence (P34972 whole entry): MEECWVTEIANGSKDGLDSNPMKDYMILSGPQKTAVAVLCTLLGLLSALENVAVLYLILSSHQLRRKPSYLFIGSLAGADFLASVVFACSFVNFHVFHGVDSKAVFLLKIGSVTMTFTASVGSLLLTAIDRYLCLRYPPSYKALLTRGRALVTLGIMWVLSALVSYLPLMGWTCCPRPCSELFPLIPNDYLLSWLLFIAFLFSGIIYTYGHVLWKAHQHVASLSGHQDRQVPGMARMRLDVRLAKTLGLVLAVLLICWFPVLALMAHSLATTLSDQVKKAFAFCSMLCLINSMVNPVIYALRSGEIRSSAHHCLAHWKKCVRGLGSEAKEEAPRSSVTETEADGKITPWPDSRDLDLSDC
T3 sequence (P34972 whole entry D80N): as the sequence (P34972 whole entry) above, with D80N counted along it

Question: Which KiCB1R/KiCB2R (CB2R; [1]) does the source give for `[2H]C([2H])([18F])C([2H])([2H])C([2H])([2H])OC(=O)C(CC)(CC)NC(=O)c1ccc(N2CC(OC)C2)c(OC[C@H]2C[C@@H]2CO)n1` [[^18F]RoSMA-18-d6] here?
Answer: > 10000

Question: And the Ki (CB2R; [2])?
Answer: 0.8 nM

Question: Which Ki (hCB2R; [3]) does the source give for `CC1(C)Cc2ccc(C(N)=O)cc2[C@@H]1NC(=O)c1cc2cc(F)ccc2[nH]1` [Compound 21C, (R)-N-(6-Carbamoyl-2,2-dimethyl-2,3-dihydro-1H-inden-1-yl)-5-fluoro-1H-indole-2-carboxamide] here?
Answer: > 1000 nM

Question: What about the Ki (hCB1R; [4]) of the same compound?
Answer: > 1000 nM

Question: With `CC1(C)Cc2ccc(C#N)cc2[C@@H]1NC(=O)c1cc2cc(F)ccc2[nH]1` [Compound (–)-6, (R)-N-(6-Cyano-2,2-dimethyl-2,3-dihydro-1H-inden-1-yl)-5-fluoro-1H-indole-2-carboxamide] as the compound, how does the “selectivity over CB1R (factor)” value (hCB2R; CB2R over CB1R) read?
Answer: > 300

Question: And the Ki (hCB2R; compound obtained by enantioselective synthesis (Scheme 2), hCB2R-CHO, [3H]WIN55.2212-2)?
Answer: 3.53 nM

Question: And the Ki (hCB2R; [5])?
Answer: 2.1 nM and 2.19 nM

Question: And the “CB2R binding affinity, in words” value (hCB2R)?
Answer: binding affinity in the same range

Question: And the Ki (hCB1R; compound obtained by enantioselective synthesis (Scheme 2), hCB1R-CHO, [3H]SR141716A, read-out: CB1R Ki)?
Answer: 965 nM

Question: What about the Ki (hCB1R; enantiomer obtained by chiral HPLC separation (Scheme 1), hCB1R-CHO, [3H]SR141716A, read-out: CB1R Ki) of the same compound?
Answer: 827 nM

Question: What about the Ki (CB2R; reported value, read-out: CB2R Ki) of the same compound?
Answer: 0.24 nM

Question: What does the source list for `CC1(C)Cc2ccc(OCCCF)cc2[C@@H]1NC(=O)c1cc2cc(F)ccc2[nH]1` [Compound 21B, (R)-5-Fluoro-N-(6-(3-fluoropropoxy)-2,2-dimethyl-2,3-dihydro-1H-inden-1-yl)-1H-indole-2-carboxamide]?
Answer: CB2R binding affinity, in words (hCB2R): slightly reduced affinity; Ki (hCB2R; [3]): 78.1 nM; Ki (hCB1R; [4]): > 1000 nM

Question: With `CC1(C)Cc2ccc(C#N)cc2[C@@H]1NC(=O)c1cc2cc(F)ccc2s1` [Compound 19H, (R)-N-(6-Cyano-2,2-dimethyl-2,3-dihydro-1H-inden-1-yl)-5-fluorobenzo[b]thiophene-2-carboxamide] as the compound, how does the “CB2R binding affinity, in words” value (hCB2R) read?
Answer: high CB2R affinity

Question: What about the Ki (hCB2R; [3]) of the same compound?
Answer: 6.98 ± 3.43 nM

Question: What about the Ki (hCB1R; [4]) of the same compound?
Answer: > 100 nM

Question: For `CC1(C)Cc2ccc(C#N)cc2[C@@H]1NC(=O)c1cc2ccc(F)cc2[nH]1` [Compound 19B, (R)-N-(6-Cyano-2,2-dimethyl-2,3-dihydro-1H-inden-1-yl)-6-fluoro-1H-indole-2-carboxamide], which Ki (hCB2R; [3]) is on record?
Answer: 15.9 nM

Question: What about the Ki (hCB1R; [4]) of the same compound?
Answer: > 1000 nM

Question: With `CC1(C)Cc2ccc(C#N)cc2[C@@H]1NC(=O)c1cc2c(F)cccc2[nH]1` [Compound 19A, (R)-N-(6-Cyano-2,2-dimethyl-2,3-dihydro-1H-inden-1-yl)-4-fluoro-1H-indole-2-carboxamide] as the compound, how does the Ki (hCB2R; [3]) read?
Answer: 3.41 nM

Question: What about the Ki (hCB1R; [4]) of the same compound?
Answer: > 1000 nM

Question: Which “CB2R binding affinity, in words” value (hCB2R) does the source give for `CC1(C)Cc2ccc(C#N)cc2[C@@H]1NC(=O)c1cc2cc(OCCF)ccc2[nH]1` [Compound 19D, (R)-N-(6-Cyano-2,2-dimethyl-2,3-dihydro-1H-inden-1-yl)-5-(2-fluoroethoxy)-1H-indole-2-carboxamide] here?
Answer: slightly decreased the affinity

Question: And the Ki (hCB2R; [3])?
Answer: 29.9 ± 3.39 nM

Question: What about the Ki (hCB1R; [4]) of the same compound?
Answer: > 1000 nM

Question: What does the source list for `O=C(NC12CC3CC(CC(C3)C1)C2)c1cc2cc(F)ccc2[nH]1` [Compound 21E, N-(Adamantan-1-yl)-5-fluoro-1H-indole-2-carboxamide]?
Answer: CB2R binding affinity, in words (hCB2R): loss of CB2R binding; Ki (hCB2R; [3]): > 1000 nM; Ki (hCB1R; [4]): > 1000 nM

Question: With `CC1(C)C(C(=O)c2cn(CCC[18F])c3ccccc23)C1(C)C` [[^18F]DM102] as the compound, how does the KiCB1R/KiCB2R (CB2R; [1]) read?
Answer: 440

Question: And the Ki (CB2R; [2])?
Answer: 7.8 nM

Question: With `Cc1c(C(=O)N[C@H]2c3cc(C#N)ccc3CC2(C)C)[nH]c2ccc(F)cc12` [Compound 19F, (R)-N-(6-Cyano-2,2-dimethyl-2,3-dihydro-1H-inden-1-yl)-5-fluoro-3-methyl-1H-indole-2-carboxamide] as the compound, how does the “CB2R binding affinity, in words” value (hCB2R) read?
Answer: deleterious effect on the binding affinity

Question: And the Ki (hCB2R; [3])?
Answer: 336 nM

Question: What about the Ki (hCB1R; [4]) of the same compound?
Answer: > 100 nM

Question: Which results are given for `CC1(C)Cc2ccc(C#N)cc2C1NC(=O)c1cc2cc(F)ccc2[nH]1` (racemic) [Compound (±)-6, (rac)-N-(6-Cyano-2,2-dimethyl-2,3-dihydro-1H-inden-1-yl)-5-fluoro-1H-indole-2-carboxamide]?
Answer: Ki (hCB2R; [3]): 3 nM; Ki (hCB1R; [4]): 842 nM

Question: For `CC12CCC(C1)C(C)(C)C2NC(=O)c1cc2cc(F)ccc2[nH]1` (stereo not shown) [Compound 21D], which “CB2R binding affinity, in words” value (hCB2R) is on record?
Answer: loss of CB2R binding

Question: What about the Ki (hCB2R; [3]) of the same compound?
Answer: > 1000 nM

Question: And the Ki (hCB1R; [4])?
Answer: > 1000 nM

Question: What does the source list for `CC1(C)Cc2ccc(C#N)cc2[C@@H]1NC(=O)c1cc2cc(OCCCF)ccc2[nH]1` [Compound 19E, (R)-N-(6-Cyano-2,2-dimethyl-2,3-dihydro-1H-inden-1-yl)-5-(3-fluoropropoxy)-1H-indole-2-carboxamide]?
Answer: CB2R binding affinity, in words (hCB2R): slightly decreased the affinity; Ki (hCB2R; [3]): 15.6 ± 3.85 nM; Ki (hCB1R; [4]): > 100 nM; Ki (hCB1R; supplement, formula strings sheet, read-out: CB1RKi): > 1000 nM

Question: Which results are given for “(R)-N-(6-Cyano-2,2-dimethyl-2,3-dihydro-1H-inden-1-yl)-6-fluoro-1H-indole-2-carboxamide [Compound 19C]”?
Answer: Ki (hCB2R; [3]): 6.49 nM; Ki (hCB1R; [4]): > 1000 nM

Question: Which “TAC peak SUV in target region” value (hCB2R(D80N)) does the source give for `[2H]C([2H])([18F])C([2H])([2H])C([2H])([2H])C([2H])([2H])n1c(=O)c(C(=O)NC23CC4CC(CC(C4)C2)C3)cc2cccnc21` [[^18F]LU13] here?
Answer: 3.6

Question: And the KiCB1R/KiCB2R (CB2R; [1])?
Answer: > 1000

Question: What about the Ki (CB2R; [2]) of the same compound?
Answer: 0.6 nM

Question: Which “CB2R binding affinity, in words” value (hCB2R) does the source give for `CC1(C)Cc2ccc(OCCF)cc2[C@@H]1NC(=O)c1cc2cc(F)ccc2[nH]1` [Compound 21A, (R)-5-Fluoro-N-(6-(2-fluoroethoxy)-2,2-dimethyl-2,3-dihydro-1H-inden-1-yl)-1H-indole-2-carboxamide] here?
Answer: slightly reduced affinity

Question: And the Ki (hCB2R; [3])?
Answer: 50 nM

Question: And the Ki (hCB1R; [4])?
Answer: > 100 nM

Question: What does the source list for `CC1(C)Cc2ccc(C#N)cc2C1NC(=O)c1cc2cc(F)ccc2[nH]1` (stereo not drawn) [Compound (+)-6]?
Answer: Ki (hCB2R; [5]): > 1000 nM; CB2R binding affinity, in words (hCB2R): inactive; also recorded: no binding; Ki (hCB1R; [4]): > 1000 nM

Question: With `CC1(C)Cc2ccc(C#N)cc2[C@@H]1NC(=O)c1nc2cc(F)ccc2[nH]1` [Compound 19G, (R)-N-(6-Cyano-2,2-dimethyl-2,3-dihydro-1H-inden-1-yl)-5-fluoro-1H-benzo[d]imidazole-2-carboxamide] as the compound, how does the “CB2R binding affinity, in words” value (hCB2R) read?
Answer: high CB2R affinity

Question: And the Ki (hCB2R; [3])?
Answer: 7.18 nM

Question: And the Ki (hCB1R; [4])?
Answer: > 100 nM

Reference: PMC10614203, “Synthesis, Structure–Activity Relationships, Radiofluorination, and Biological Evaluation of [^18F]RM365, a Novel Radioligand for Imaging the Human Cannabinoid Receptor Type 2 (CB2R) in the Brain with PET” (Journal of Medicinal Chemistry, 2023)
